Measurements: patent US8415272B2, “Quinoline derivatives and their use as fungicides” (Syngenta Crop Protection LLC, priority 2008, dated 2013)

Tests used:
Plasmopara viticola = assay: Leaf disk assay, Plasmopara viticola (downy mildew of grapevine), preventive; assay type: in vivo; details: foliar, 168 h, grapevine leaf disks, assessed seven days after inoculation, read-out: control of fungal infection, Plasmopara viticola
Septoria nodorum = assay: Leaf disk assay, Septoria nodorum (wheat glume blotch), preventive; assay type: in vivo; details: Parastagonospora nodorum, foliar, 96 h, wheat leaf segments, assessed four days after inoculation, read-out: control of fungal infection, Septoria nodorum
[1] = tested on: Puccinia recondita f.sp. tritici; assay: Leaf disk assay, Puccinia recondita f.sp. tritici (wheat brown rust), preventive; assay type: in vivo; details: foliar, 216 h, wheat leaf segments, assessed nine days after inoculation, read-out: control of fungal infection, Puccinia recondita f.sp. tritici
Pyrenophora teres = assay: Leaf disk assay, Pyrenophora teres (barley net blotch), preventive; assay type: in vivo; details: foliar, 96 h, barley leaf segments, assessed four days after inoculation, read-out: control of fungal infection, Pyrenophora teres
Protocol: The compounds were tested in a leaf disk assay, with methods described below. The test compounds were dissolved in DMSO and diluted into water to 200 ppm. In the case of the test on Pythium ultimum, they were dissolved in DMSO and diluted into water to 20 ppm. Pyrenophora teres (barley net blotch): Barley leaf segments were placed on agar in a 24-well plate and sprayed with a solution of the test compound. After allowing to dry completely, for between 12 and 24 hours, the leaf disks were inoculated with a spore suspension of the fungus. After appropriate incubation the activity of a compound was assessed four days after inoculation as preventive fungicidal activity.

[2] = tested on: Erysiphe graminis f.sp. tritici; assay: Leaf disk assay, Erysiphe graminis f.sp. tritici (wheat powdery mildew), preventive; assay type: in vivo; details: Blumeria graminis, foliar, 96 h, wheat leaf segments, assessed four days after inoculation, read-out: control of fungal infection, Erysiphe graminis f.sp. tritici
In short: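 Wheat leaf segments on agar were sprayed with compound at 200 ppm (DMSO stock diluted in water). After 12–24 h drying they were inoculated with powdery mildew spores. Preventive activity was scored 4 days after inoculation.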

Phytophthora infestans = assay: whole plant or invertebrate; assay type: in vivo; details: in Solanum lycopersicum, foliar, 96 h, read-out: control of fungal infection, Phytophthora infestans
Septoria tritici = assay: Growth inhibition in nutrient broth, Septoria tritici (leaf blotch), photometric; assay type: cell-based; details: Zymoseptoria tritici, PDB broth, 24 C, 72 hrs, read-out: control of fungal infection, Septoria tritici
Pythium ultimum = assay: Growth inhibition in potato dextrose broth, Pythium ultimum (damping off), photometric; assay type: cell-based; details: Globisporangium ultimum, 24° C., 48 hours, read-out: control of fungal infection, Pythium ultimum
In short: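 Growth inhibition was read photometrically at 48 hours after incubation at 24° C. Test compound was diluted from DMSO to 20 ppm in water and combined with potato dextrose broth seeded with Pythium ultimum mycelial fragments.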

Fusarium culmorum = assay: Growth inhibition in nutrient broth, Fusarium culmorum (root rot), photometric; assay type: cell-based; details: 48 h, read-out: control of fungal infection, Fusarium culmorum
Protocol: The compounds were tested in a leaf disk assay, with methods described below. The test compounds were dissolved in DMSO and diluted into water to 200 ppm. In the case of the test on Pythium ultimum, they were dissolved in DMSO and diluted into water to 20 ppm.
Fusarium culmorum (root rot): Conidia of the fungus from cryogenic storage were directly mixed into nutrient broth (PDB potato dextrose broth). After placing a (DMSO) solution of the test compounds into a microtiter plate (96-well format) the nutrient broth containing the fungal spores was added. The test plates were incubated at 24 C and the inhibition of growth was determined photometrically after 48 hrs.

C#Cc1cnc2c(Cl)cc(OC(SC)C(=O)NC(C)(C)C#C)cc2c1 (stereo not drawn) [Example 19]
≥ 60%: pest or weed control at 200 ppm (Plasmopara viticola) | pest or weed control at 200 ppm (Septoria nodorum) | pest or weed control at 200 ppm [1] | pest or weed control at 200 ppm (Pyrenophora teres) | pest or weed control at 200 ppm [2] | pest or weed control at 200 ppm (Phytophthora infestans)

C#Cc1cnc2c(Cl)cc(OC(SC)C(=O)NC(C)(C)C#CCOC)cc2c1 (stereo not drawn) [Example 62]
≥ 60%: pest or weed control at 200 ppm (Plasmopara viticola) | pest or weed control at 200 ppm (Septoria nodorum) | pest or weed control at 200 ppm [1] | pest or weed control at 200 ppm (Pyrenophora teres) | inhibition of growth at 60 ppm (Septoria tritici) | pest or weed control at 200 ppm [2] | pest or weed control at 200 ppm (Phytophthora infestans)

C#Cc1cnc2c(C)cc(OC(SC)C(=O)NC(C)(C)COCOC)cc2c1 (stereo not drawn) [Example 68]
≥ 60%: pest or weed control at 200 ppm (Plasmopara viticola) | pest or weed control at 200 ppm (Septoria nodorum) | pest or weed control at 200 ppm [1] | pest or weed control at 200 ppm (Pyrenophora teres) | inhibition of growth at 60 ppm (Septoria tritici) | pest or weed control at 200 ppm [2] | pest or weed control at 200 ppm (Phytophthora infestans)

C#Cc1cnc2c(Cl)cc(OC(SC)C(=O)NC(C)(C)COC)cc2c1 (stereo not drawn) [Example 74]
≥ 60%: pest or weed control at 200 ppm (Plasmopara viticola) | pest or weed control at 200 ppm (Septoria nodorum) | pest or weed control at 200 ppm [1] | pest or weed control at 200 ppm (Pyrenophora teres) | inhibition of growth at 60 ppm (Septoria tritici) | pest or weed control at 200 ppm [2] | inhibition of growth at 20 ppm (Pythium ultimum) | pest or weed control at 200 ppm (Phytophthora infestans)

C#CCOCC(C)(C)NC(=O)C(Oc1cc(Cl)c2ncc(C#C)cc2c1)SC (stereo not drawn) [Example 76]
≥ 60%: pest or weed control at 200 ppm (Plasmopara viticola) | pest or weed control at 200 ppm (Septoria nodorum) | pest or weed control at 200 ppm [1] | pest or weed control at 200 ppm (Pyrenophora teres) | inhibition of growth at 60 ppm (Septoria tritici) | pest or weed control at 200 ppm [2] | inhibition of growth at 20 ppm (Pythium ultimum) | pest or weed control at 200 ppm (Phytophthora infestans)

C#Cc1cnc2c(C)cc(OC(SC)C(=O)NC(C)(C#N)CF)cc2c1 (stereo not drawn) [Example 102]
≥ 60%: pest or weed control at 200 ppm [1] | pest or weed control at 200 ppm (Pyrenophora teres)

C#Cc1cnc2c(C)cc(OC(CC)C(=O)NC(C)(C)C#CC)cc2c1 (stereo not drawn) [Example 113]
≥ 60%: pest or weed control at 200 ppm (Plasmopara viticola) | pest or weed control at 200 ppm (Septoria nodorum) | pest or weed control at 200 ppm [1] | pest or weed control at 200 ppm (Pyrenophora teres) | inhibition of growth at 60 ppm (Septoria tritici) | pest or weed control at 200 ppm [2] | pest or weed control at 200 ppm (Phytophthora infestans)

C#Cc1cnc2c(C)cc(OC(SC)C(=O)NC(C)(COC)COC)cc2c1 (stereo not drawn) [Example 133]
≥ 60%: pest or weed control at 200 ppm (Plasmopara viticola) | pest or weed control at 200 ppm (Septoria nodorum) | pest or weed control at 200 ppm [1] | pest or weed control at 200 ppm (Pyrenophora teres) | inhibition of growth at 60 ppm (Septoria tritici) | pest or weed control at 200 ppm [2] | pest or weed control at 200 ppm (Phytophthora infestans)

C#Cc1cnc2cc(F)c(OC(SC)C(=O)NC(C)(C)C#CCCOC)cc2c1 (stereo not drawn) [Example 189]
≥ 60%: pest or weed control at 200 ppm (Plasmopara viticola) | pest or weed control at 200 ppm (Septoria nodorum) | inhibition of growth at 60 ppm (Fusarium culmorum) | pest or weed control at 200 ppm [1] | inhibition of growth at 60 ppm (Septoria tritici) | pest or weed control at 200 ppm [2] | inhibition of growth at 20 ppm (Pythium ultimum) | pest or weed control at 200 ppm (Phytophthora infestans)

C#Cc1cnc2cc(F)c(OC(SC)C(=O)NC(C)(C)C#CCOCC)cc2c1 (stereo not drawn) [Example 191]
≥ 60%: pest or weed control at 200 ppm (Plasmopara viticola) | pest or weed control at 200 ppm (Septoria nodorum) | inhibition of growth at 60 ppm (Fusarium culmorum) | pest or weed control at 200 ppm [1] | inhibition of growth at 60 ppm (Septoria tritici) | pest or weed control at 200 ppm [2] | inhibition of growth at 20 ppm (Pythium ultimum) | pest or weed control at 200 ppm (Phytophthora infestans)

C#CCOCC#CC(C)(C)NC(=O)C(Oc1cc2cc(C#C)cnc2cc1F)SC (stereo not drawn) [Example 198]
≥ 60%: pest or weed control at 200 ppm (Plasmopara viticola) | pest or weed control at 200 ppm (Septoria nodorum) | inhibition of growth at 60 ppm (Fusarium culmorum) | pest or weed control at 200 ppm [1] | inhibition of growth at 60 ppm (Septoria tritici) | pest or weed control at 200 ppm [2] | inhibition of growth at 20 ppm (Pythium ultimum) | pest or weed control at 200 ppm (Phytophthora infestans)

C#Cc1cnc2cc(F)c(OC(SC)C(=O)NC(C)(C)C#CCOCC=C)cc2c1 (stereo not drawn) [Example 199]
≥ 60%: pest or weed control at 200 ppm (Plasmopara viticola) | pest or weed control at 200 ppm (Septoria nodorum) | inhibition of growth at 60 ppm (Fusarium culmorum) | pest or weed control at 200 ppm [1] | inhibition of growth at 60 ppm (Septoria tritici) | pest or weed control at 200 ppm [2] | inhibition of growth at 20 ppm (Pythium ultimum) | pest or weed control at 200 ppm (Phytophthora infestans)

C#Cc1cnc2cc(F)c(OC(SC)C(=O)NC(C)(C)COCC)cc2c1 (stereo not drawn) [Example 200]
≥ 60%: pest or weed control at 200 ppm (Plasmopara viticola) | pest or weed control at 200 ppm (Septoria nodorum) | inhibition of growth at 60 ppm (Fusarium culmorum) | pest or weed control at 200 ppm [1] | inhibition of growth at 60 ppm (Septoria tritici) | pest or weed control at 200 ppm [2] | inhibition of growth at 20 ppm (Pythium ultimum) | pest or weed control at 200 ppm (Phytophthora infestans)

C#Cc1cnc2ccc(OC(SC)C(=O)NC(C)(C#CC)CC)cc2c1 (stereo not drawn) [Example 204]
≥ 60%: pest or weed control at 200 ppm (Plasmopara viticola) | pest or weed control at 200 ppm (Septoria nodorum) | inhibition of growth at 60 ppm (Fusarium culmorum) | pest or weed control at 200 ppm [1] | inhibition of growth at 60 ppm (Septoria tritici) | pest or weed control at 200 ppm [2] | inhibition of growth at 20 ppm (Pythium ultimum) | pest or weed control at 200 ppm (Phytophthora infestans)

C#Cc1cnc2ccc(OC(SC)C(=O)NC3(C#C)CCCCC3)cc2c1 (stereo not drawn) [Example 206]
≥ 60%: pest or weed control at 200 ppm (Plasmopara viticola) | pest or weed control at 200 ppm (Septoria nodorum) | inhibition of growth at 60 ppm (Fusarium culmorum) | pest or weed control at 200 ppm [1] | inhibition of growth at 60 ppm (Septoria tritici) | pest or weed control at 200 ppm [2] | inhibition of growth at 20 ppm (Pythium ultimum) | pest or weed control at 200 ppm (Phytophthora infestans)

C#CCNC(=O)C(Oc1ccc2ncc(C#C)cc2c1)SC (stereo not drawn) [Example 208]
≥ 60%: pest or weed control at 200 ppm (Plasmopara viticola) | pest or weed control at 200 ppm (Septoria nodorum) | inhibition of growth at 60 ppm (Fusarium culmorum) | pest or weed control at 200 ppm [1] | inhibition of growth at 60 ppm (Septoria tritici) | pest or weed control at 200 ppm [2] | inhibition of growth at 20 ppm (Pythium ultimum) | pest or weed control at 200 ppm (Phytophthora infestans)

C#Cc1cnc2ccc(OC(SC)C(=O)NC3CC3)cc2c1 (stereo not drawn) [Example 212]
≥ 60%: pest or weed control at 200 ppm (Plasmopara viticola) | pest or weed control at 200 ppm (Septoria nodorum) | inhibition of growth at 60 ppm (Fusarium culmorum) | pest or weed control at 200 ppm [1] | inhibition of growth at 60 ppm (Septoria tritici) | pest or weed control at 200 ppm [2] | inhibition of growth at 20 ppm (Pythium ultimum) | pest or weed control at 200 ppm (Phytophthora infestans)

C#Cc1cnc2ccc(OC(SC)C(=O)NC3CCC3)cc2c1 (stereo not drawn) [Example 213]
≥ 60%: pest or weed control at 200 ppm (Plasmopara viticola) | pest or weed control at 200 ppm (Septoria nodorum) | inhibition of growth at 60 ppm (Fusarium culmorum) | pest or weed control at 200 ppm [1] | inhibition of growth at 60 ppm (Septoria tritici) | pest or weed control at 200 ppm [2] | inhibition of growth at 20 ppm (Pythium ultimum) | pest or weed control at 200 ppm (Phytophthora infestans)

C#Cc1cnc2ccc(OC(SC)C(=O)NC3CCCC3)cc2c1 (stereo not drawn) [Example 214]
≥ 60%: pest or weed control at 200 ppm (Plasmopara viticola) | pest or weed control at 200 ppm (Septoria nodorum) | inhibition of growth at 60 ppm (Fusarium culmorum) | pest or weed control at 200 ppm [1] | inhibition of growth at 60 ppm (Septoria tritici) | pest or weed control at 200 ppm [2] | inhibition of growth at 20 ppm (Pythium ultimum) | pest or weed control at 200 ppm (Phytophthora infestans)

C#Cc1cnc2c(F)cc(OC(SC)C(=O)NC(C)(C)C#CCOC)cc2c1 (stereo not drawn) [Example 218]
≥ 60%: pest or weed control at 200 ppm (Plasmopara viticola) | pest or weed control at 200 ppm (Septoria nodorum) | inhibition of growth at 60 ppm (Fusarium culmorum) | pest or weed control at 200 ppm [1] | inhibition of growth at 60 ppm (Septoria tritici) | pest or weed control at 200 ppm [2] | inhibition of growth at 20 ppm (Pythium ultimum) | pest or weed control at 200 ppm (Phytophthora infestans)

C#Cc1cnc2c(F)cc(OC(SC)C(=O)NC(C)C)cc2c1 (stereo not drawn) [Example 222]
≥ 60%: pest or weed control at 200 ppm (Plasmopara viticola) | pest or weed control at 200 ppm (Septoria nodorum) | inhibition of growth at 60 ppm (Fusarium culmorum) | pest or weed control at 200 ppm [1] | inhibition of growth at 60 ppm (Septoria tritici) | pest or weed control at 200 ppm [2] | inhibition of growth at 20 ppm (Pythium ultimum) | pest or weed control at 200 ppm (Phytophthora infestans)
